Data on 1 compound can be found in patent publication US20230295088A1, “INSULIN SENSITIZERS FOR THE TREATMENT OF DIABETES MELLITUS” (University of Iowa Research Foundation, priority 2020, published 2023).

“Also recorded” adds a separate entry of the source.

One assay has as its system Unc119b KO HBG4 cells. Briefly: 3H-Deoxy-D-Glucose uptake in Unc119b KO HBG4 cells. It counts as cell-based, mouse. As to the method: Unc119 and Unc119b are important for the insulin sensitizing effect of C59. After identifying Unc119 proteins as molecular targets for C59, it was tested whether those proteins were responsible for the insulin sensitizing activity of C59. To this end Unc119 and Unc119b KO HBG4 cells were generated using CRISPR/Cas9 technology. For each of those cell lines two gRNA surrounding the start codon were used, thus resulting in a deletion of a fragment of the Unc119 genes that includes the ATG. Deletion of Unc119 and Unc119b in clonal cell lines were screened and verified by PCR (FIG. 4E). The effect of C59 on insulin-stimulated. […] To further test this finding, 3H-Deoxy-D-Glucose uptake in WT, Unc119 KO and Unc119b KO HBG4 cells treated with vehicle, insulin, C59 alone and C59 with insulin was measured.

Assay [1] concerns GLUT4 translocation in C2C12 myoblast cell line stably expressing HiBiT-GLUT4 (HBG4). In words: HiBiT (NanoBit) luminescence GLUT4 translocation assay in HBG4 C2C12 cells. It counts as cell-based, mouse. An excerpt: An assay was used to identify potentiators of insulin-stimulated GLUT4 translocation. In one embodiment, the assay employs Nanobit technology. This technology is based on the recombination of two complementary fragments, HiBiT and LgBiT, of the Nanoluc luciferase. HiBit was fused to an extracellular region of GLUT4 to allow for the rapid quantitation of its the surface density in live cells by adding the reconibinantly produced complementary fragment LgBiT and the luciferase substrate. Since LgBiT is not membrane permeant, only proteins at the plasma membrane are quantified. To measure GLUT4 translocation, a stable C2C12 myoblast cell line was prepared by expressing a HiBiT-tagged mouse GLUT4. […] The Chembridge Diverset library of 49,600 compounds was screened and 1264 hits were identified. A subset of those hits were selected and retested in the presence and absence of insulin.
Development of a HTS assay for real-time measurement of GLUT4 translocation. To measure GLUT4 translocation in a homogenous and HIS amenable manner, NanoBit technology was used. This technology relies on the rapid recombination of 2 fragments of the Nanoluc luciferase (HiBit and LgBiT) with high affinity for each other. Fragments have no enzymatic activity on their own but generate a bright luminescent signal when recombined. A C2C12 myoblast cell line was prepared that stably expressed HiBiT-GLUT4 (HBG4), in which the small 11 amino acid HiBiT fragment was inserted into the first extracellular loop of GLUT4. A C-terminal mCherry was also added for microscopic detection. The C2C12 line was chosen as an in vitro model because it is derived from skeletal myoblasts and translocate GLUT4 in response to insulin. Detection of plasma membrane density of HBG4 is achieved by adding recombinant LgBit and substrate to live cells. The assay can be conducted as an endpoint where cells are incubated with insulin before measuring luminescence or as a kinetic assay by adding LgBiT and substrate at the beginning of the experiment and monitor real-time insulin-stimulated GLUT4 translocation.
An assay to measure GLUT4 translocation in a homogenous and HIS amenable manner using NanoBit technology was developed. This technology relies on the rapid recombination of 2 fragments of the Nanoiuc luciferase (HiBit and LgBiT) with high affinity for each other. Fragments have no enzymatic activity on their own but generate a bright luminescent signal when recombined. A C2C12 myoblast cell line stably expressing HiBiT-GLUT4 (HBG4), in which the small 11 amino acid HiBiT fragment was inserted into the first extracellular loop of GLUT4 was prepared. A C-terminal mCherry was also added for microscopic detection (FIGS. 1A and B). The C2C12 line was chosen as an in-vitro model because it is derived from skeletal myoblasts and translocates GLUT4 in response to insulin. Detection of plasma membrane density of HBG4 is achieved by adding recombinant LgBit and substrate to live cells (FIG. 1C). The assay can be conducted as a kinetic assay by adding LgBiT and substrate at the beginning of the experiment and monitoring real-time insulin-stimulated GLUT4 translocation (FIGS. 1D and E).

On to `O=C(Nc1ccc(Cl)c(Cl)c1)C12CC3CC(CC(C3)C1)C2` [Compound C59], for which, in the assay with Unc119b KO HBG4 cells (no insulin), the “3H-Deoxy-D-Glucose uptake, compound alone” value is on record as “did not stimulate”. Further, in the assay on Unc119b KO HBG4 cells (with insulin), the “insulin stimulated 3H-Deoxy-D-Glucose uptake” value is on record as “failed to do so”. For the same compound, the EC50 in assay [1] (Mus musculus, HBG4 C2C12 cells, with insulin, read-out: potency (enhancement of insulin effect on GLUT4 translocation)) stood at 2500 nM. Moreover, in assay [1] (enhancement of insulin effect on GLUT4 translocation), the “efficacy compared with C3” value is on record as “higher; also recorded: improved efficacy”. The “insulin-stimulated GLUT4 translocation” value in assay [1] (in the presence of insulin, WT HBG4 C2C12 cells) is reported as “enhanced; also recorded: retained activity; also recorded: increased”.
